According to US8501812B2, “Therapeutic methods for type I diabetes” (University of Massachusetts, priority 2005, dated 2013):

How the values were obtained:
JNK2 = target: T1, JNK2 (Homo sapiens, UniProt P45984); experiment: c-Jun phosphorylation assay with His6-JNK2 and GST-c-Jun(1-79), γ-32P ATP; type: biochemical; conditions: assay consistently shows, despite variability
T1 construct: His6 (N)
Method: For example, to 10 μL of 5-amino-anthra(9,1-cd)isothiazol-6-one in 20% DMSO/80% dilution buffer containing of 20 mM HEPES (pH 7.6), 0.1 mM EDTA, 2.5 mM magnesium chloride, 0.004% Triton×100, 2 μg/mL leupeptin, 20 mM β-glycerolphosphate, 0.1 mM sodium vanadate, and 2 mM DTT in water is added 30 μL of 50-200 ng His6-JNK2 in the same dilution buffer. The mixture is pre-incubated for 30 minutes at room temperature. Sixty μL of 10 μg GST-c-Jun(1-79) in assay buffer consisting of 20 mM HEPES (pH 7.6), 50 mM sodium chloride, 0.1 mM EDTA, 24 mM magnesium chloride, 1 mM DTT, 25 mM PNPP, 0.05% Triton×100, 11 μM ATP, and 0.5 μCi γ-32P ATP in water is added and the reaction is allowed to proceed for 1 hour at room temperature. The c-Jun phosphorylation is terminated by addition of 150 μL of 12.5% trichloroacetic acid. After 30 minutes, the precipitate is harvested onto a filter plate, diluted with 50 μL of the scintillation fluid and quantified by a counter. The IC50 values are calculated as the concentration of 5-amino-anthra(9,1-cd)isothiazol-6-one at which the c-Jun phosphorylation is reduced to 50% of the control value. Compounds that inhibit JNK2 preferably have an IC50 value ranging 0.01-10 μM in this assay. 5-Amino-anthra(9,1-cd)isothiazol-6-one has an IC50 according to this assay of 1 μM for JNK2 and 400 nM for JNK3.

[1] = solubility in aqueous media; type: physicochemical

T1 sequence (P45984 whole entry): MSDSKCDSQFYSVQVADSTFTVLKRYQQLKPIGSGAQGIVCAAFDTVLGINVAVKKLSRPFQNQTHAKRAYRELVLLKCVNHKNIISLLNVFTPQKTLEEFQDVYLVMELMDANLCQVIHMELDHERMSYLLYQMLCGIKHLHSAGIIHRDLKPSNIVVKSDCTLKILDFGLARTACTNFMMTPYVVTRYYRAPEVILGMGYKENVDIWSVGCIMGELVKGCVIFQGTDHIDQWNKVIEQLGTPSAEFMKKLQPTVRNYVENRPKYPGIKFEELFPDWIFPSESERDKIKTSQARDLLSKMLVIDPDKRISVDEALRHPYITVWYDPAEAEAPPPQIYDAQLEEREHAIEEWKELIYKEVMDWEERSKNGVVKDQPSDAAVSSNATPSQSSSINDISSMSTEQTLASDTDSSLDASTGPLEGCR

selectivity of JNK2 inhibition (JNK2): selectively inhibits JNK2
solubility in aqueous media [1]: limited solubility
Structure (SMILES): Nc1ccc2snc3c2c1C(=O)c1ccccc1-3 [5-amino-anthra(9,1-cd)isothiazol-6-one]
